Test results: ChEMBL document CHEMBL1201862, “PubChem BioAssay data set” (2004)
Active and inactive are the calls of the source. For most assays here, no stated cut-off is given here; in the data, actives have a measured IC50 and inactives only a lower limit.

Tests used:
Format in all cases: functional
[1] = molecular target: T1, Sentrin-specific protease 6 (Homo sapiens, UniProt Q9GZR1);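 further: Luminescence-based dose-response confirmatory assay of SENP6 inhibition, following up an ultra-high-throughput screen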
T1 sequence (Q9GZR1 whole entry): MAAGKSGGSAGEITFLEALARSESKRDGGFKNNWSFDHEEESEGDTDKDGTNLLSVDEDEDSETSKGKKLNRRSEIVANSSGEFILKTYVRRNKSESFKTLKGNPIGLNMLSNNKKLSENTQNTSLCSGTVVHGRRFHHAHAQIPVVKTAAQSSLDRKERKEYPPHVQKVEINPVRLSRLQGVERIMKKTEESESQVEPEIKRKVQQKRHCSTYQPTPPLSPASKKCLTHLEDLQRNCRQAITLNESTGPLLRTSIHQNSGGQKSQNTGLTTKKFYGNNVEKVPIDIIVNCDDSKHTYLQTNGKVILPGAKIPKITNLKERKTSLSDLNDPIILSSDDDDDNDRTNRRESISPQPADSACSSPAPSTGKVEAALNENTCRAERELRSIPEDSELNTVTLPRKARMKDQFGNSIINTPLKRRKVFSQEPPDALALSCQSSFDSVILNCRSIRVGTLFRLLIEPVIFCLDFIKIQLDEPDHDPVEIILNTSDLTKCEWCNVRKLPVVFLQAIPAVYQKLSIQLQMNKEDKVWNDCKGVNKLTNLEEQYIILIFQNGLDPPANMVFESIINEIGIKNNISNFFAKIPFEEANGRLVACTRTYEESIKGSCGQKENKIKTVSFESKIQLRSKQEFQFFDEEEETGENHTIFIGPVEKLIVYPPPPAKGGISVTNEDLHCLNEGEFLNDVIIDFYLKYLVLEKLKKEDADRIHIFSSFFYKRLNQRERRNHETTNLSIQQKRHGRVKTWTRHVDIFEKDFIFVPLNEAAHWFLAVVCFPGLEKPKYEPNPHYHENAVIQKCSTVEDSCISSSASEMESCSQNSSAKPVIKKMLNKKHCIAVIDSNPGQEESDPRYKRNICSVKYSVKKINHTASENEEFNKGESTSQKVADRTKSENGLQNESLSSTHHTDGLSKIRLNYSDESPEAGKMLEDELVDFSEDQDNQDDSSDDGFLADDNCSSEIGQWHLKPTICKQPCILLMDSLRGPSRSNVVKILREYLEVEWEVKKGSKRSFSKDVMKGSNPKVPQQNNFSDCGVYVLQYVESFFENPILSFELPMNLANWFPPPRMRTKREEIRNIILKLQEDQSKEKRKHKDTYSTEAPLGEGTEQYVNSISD

[2] = molecular target: T2, Sentrin-specific protease 7 (Homo sapiens, UniProt Q9BQF6);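 further: Luminescence-based dose-response confirmation of ultra-high-throughput screening hits, measuring inhibition of SENP7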
T2 sequence (Q9BQF6 whole entry): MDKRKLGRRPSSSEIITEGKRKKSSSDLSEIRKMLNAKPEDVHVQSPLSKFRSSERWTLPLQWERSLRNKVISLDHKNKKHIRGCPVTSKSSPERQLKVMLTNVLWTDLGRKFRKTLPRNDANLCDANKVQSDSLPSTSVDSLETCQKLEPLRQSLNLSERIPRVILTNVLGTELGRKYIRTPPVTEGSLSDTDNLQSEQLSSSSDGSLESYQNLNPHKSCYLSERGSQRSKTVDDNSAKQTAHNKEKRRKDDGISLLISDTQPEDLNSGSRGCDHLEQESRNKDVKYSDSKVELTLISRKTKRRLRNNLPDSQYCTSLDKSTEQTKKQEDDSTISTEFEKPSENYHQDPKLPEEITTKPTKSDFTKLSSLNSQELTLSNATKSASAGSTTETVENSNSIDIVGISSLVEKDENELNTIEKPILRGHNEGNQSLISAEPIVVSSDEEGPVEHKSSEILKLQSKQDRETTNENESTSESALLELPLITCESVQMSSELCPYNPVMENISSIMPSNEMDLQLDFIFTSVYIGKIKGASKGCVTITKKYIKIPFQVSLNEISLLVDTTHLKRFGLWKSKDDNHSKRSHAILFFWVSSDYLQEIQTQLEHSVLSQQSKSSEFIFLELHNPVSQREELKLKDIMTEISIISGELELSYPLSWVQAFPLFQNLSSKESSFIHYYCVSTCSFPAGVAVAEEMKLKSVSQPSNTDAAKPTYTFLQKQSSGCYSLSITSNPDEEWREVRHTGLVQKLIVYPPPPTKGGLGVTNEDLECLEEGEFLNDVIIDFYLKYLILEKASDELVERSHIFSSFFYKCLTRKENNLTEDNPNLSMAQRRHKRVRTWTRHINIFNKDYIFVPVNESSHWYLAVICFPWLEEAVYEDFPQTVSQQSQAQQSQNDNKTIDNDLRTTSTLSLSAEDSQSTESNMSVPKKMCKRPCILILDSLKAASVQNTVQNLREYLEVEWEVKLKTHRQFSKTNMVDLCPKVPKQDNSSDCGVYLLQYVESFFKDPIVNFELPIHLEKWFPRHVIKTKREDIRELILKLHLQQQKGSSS

Protein RecA = molecular target: T3, Protein RecA (Mycobacterium tuberculosis, UniProt P9WHJ3); experiment: Fluorescence Cell-Free Homogeneous Dose Retest to Identify Inhibitors of RecA-Intein Splicing Activity. [Related pubchem assays (depositor defined):AID2097, AID2223, AID489010, AID492950]
T3 sequence (P9WHJ3 whole entry): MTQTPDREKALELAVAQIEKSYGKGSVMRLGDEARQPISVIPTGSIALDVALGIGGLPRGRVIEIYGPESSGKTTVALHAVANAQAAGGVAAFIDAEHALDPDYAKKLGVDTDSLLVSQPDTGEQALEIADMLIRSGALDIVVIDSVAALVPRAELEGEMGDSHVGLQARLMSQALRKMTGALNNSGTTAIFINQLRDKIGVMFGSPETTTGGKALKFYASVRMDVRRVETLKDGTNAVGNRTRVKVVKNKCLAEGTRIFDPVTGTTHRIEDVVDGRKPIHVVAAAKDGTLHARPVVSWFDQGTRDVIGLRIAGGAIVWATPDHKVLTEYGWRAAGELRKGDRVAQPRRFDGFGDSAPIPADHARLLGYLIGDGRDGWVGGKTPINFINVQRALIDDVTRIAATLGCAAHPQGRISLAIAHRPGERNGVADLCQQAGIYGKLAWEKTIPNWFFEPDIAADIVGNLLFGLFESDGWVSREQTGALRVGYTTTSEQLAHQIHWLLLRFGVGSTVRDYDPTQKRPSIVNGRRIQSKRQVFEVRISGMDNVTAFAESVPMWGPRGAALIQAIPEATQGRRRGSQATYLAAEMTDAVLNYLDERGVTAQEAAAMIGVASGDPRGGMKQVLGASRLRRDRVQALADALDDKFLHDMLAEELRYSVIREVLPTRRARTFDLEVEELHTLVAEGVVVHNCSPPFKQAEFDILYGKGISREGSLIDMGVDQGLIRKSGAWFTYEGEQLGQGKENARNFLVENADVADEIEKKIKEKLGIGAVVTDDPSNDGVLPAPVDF

Compound	IC50 [1]	IC50 [2]	EC50 (Protein RecA)
COc1ccccc1N1C(=O)Cc2ccccc2C1=O	10.6 µM (active)	31.2 µM (active)	9.77 µM (active)
Oc1ccccc1/C=C/c1noc(-c2ccccc2O)n1	> 100 µM (inactive)	3.46 µM (active)	–
O=C(O)CSc1cc(NS(=O)(=O)c2ccc(Cl)cc2)c2ccccc2c1O	–	–	2.39 µM (active)
Cc1cccc(N=Nc2ccc(N(C)C)cc2)c1	4.4 µM (active)	2.52 µM (active)	–
Cc1nn(-c2ccccc2)c(Cl)c1CN(C(=O)CCl)c1ccc(Cl)cc1	–	–	0.355 µM (active)
